Legend:
DOR = DOR (Rattus norvegicus, UniProt P33533); assay: agonist-stimulated [35S]GTPγS binding, DOR; details: for EC50 (nM) DOR: [35S]GTPγS binding, C6-DOR membranes, dns: does not stimulate
KOR = KOR (Homo sapiens, UniProt P41145); assay: agonist-stimulated [35S]GTPγS binding, KOR; details: for EC50 (nM) KOR: [35S]GTPγS binding, CHO-KOR membranes, mean ± SEM; for EC50 (nM) KOR / % stimulation KOR: dns: does not stimulate; for % stimulation KOR: percent maximal stimulation relative to standard agonist U69,593 at 10 µM
Chain of KOR (P41145 whole entry): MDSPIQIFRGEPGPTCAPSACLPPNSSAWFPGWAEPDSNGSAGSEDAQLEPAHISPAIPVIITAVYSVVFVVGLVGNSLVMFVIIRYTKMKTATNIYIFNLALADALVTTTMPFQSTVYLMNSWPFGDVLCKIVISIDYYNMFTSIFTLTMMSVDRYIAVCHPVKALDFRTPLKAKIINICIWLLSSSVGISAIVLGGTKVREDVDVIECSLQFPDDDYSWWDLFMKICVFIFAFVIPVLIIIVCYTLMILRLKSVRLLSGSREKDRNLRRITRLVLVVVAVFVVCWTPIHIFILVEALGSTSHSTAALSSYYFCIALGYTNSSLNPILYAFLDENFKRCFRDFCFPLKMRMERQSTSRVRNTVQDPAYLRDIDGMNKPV

MOR = MOR (Rattus norvegicus, UniProt P33535); assay: agonist-stimulated [35S]GTPγS binding, MOR; details: for efficacy at MOR (in words): [35S]GTPγS assay; for EC50 (nM) MOR: [35S]GTPγS binding, C6-MOR membranes, mean ± SEM, dns: does not stimulate
Chain of MOR (P33535 whole entry): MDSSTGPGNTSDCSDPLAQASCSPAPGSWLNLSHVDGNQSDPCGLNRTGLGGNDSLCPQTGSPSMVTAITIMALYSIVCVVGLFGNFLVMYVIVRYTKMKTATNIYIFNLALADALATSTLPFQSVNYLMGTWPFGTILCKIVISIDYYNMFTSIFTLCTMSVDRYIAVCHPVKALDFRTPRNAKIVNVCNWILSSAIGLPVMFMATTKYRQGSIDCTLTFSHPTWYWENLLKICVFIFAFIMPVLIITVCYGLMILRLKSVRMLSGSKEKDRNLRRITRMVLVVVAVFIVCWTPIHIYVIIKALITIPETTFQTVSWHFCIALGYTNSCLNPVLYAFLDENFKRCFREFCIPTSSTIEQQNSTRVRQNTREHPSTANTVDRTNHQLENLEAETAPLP

Chain of DOR (P33533 whole entry): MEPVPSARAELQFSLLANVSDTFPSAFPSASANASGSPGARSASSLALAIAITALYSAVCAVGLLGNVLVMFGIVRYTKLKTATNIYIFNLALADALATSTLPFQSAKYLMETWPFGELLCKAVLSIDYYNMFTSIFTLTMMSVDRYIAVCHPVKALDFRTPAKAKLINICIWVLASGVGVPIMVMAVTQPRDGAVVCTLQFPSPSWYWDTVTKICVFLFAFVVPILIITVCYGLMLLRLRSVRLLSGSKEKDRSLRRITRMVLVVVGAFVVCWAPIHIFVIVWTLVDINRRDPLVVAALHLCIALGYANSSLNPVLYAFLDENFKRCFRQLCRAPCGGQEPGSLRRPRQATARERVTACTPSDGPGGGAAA

Compound | EC50 (nM) DOR (DOR) | EC50 (nM) KOR (KOR) | % stimulation KOR (KOR) | efficacy at MOR (in words) (MOR) | EC50 (nM) MOR (MOR) | efficacy at DOR (in words) (DOR; [35S]GTPγS assay) | efficacy at KOR (in words) (KOR; [35S]GTPγS assay)
Cc1cc(O)cc(C)c1C[C@H](N)C(=O)N1CCN(C/C=C\Cc2ccccc2)CC1 [Compound 11] | dns |  |  |  |  |  | 
Cc1cc(O)cc(C)c1C[C@H](N)C(=O)N1CCN(CCCCc2ccccc2)CC1 [Compound 9] | dns | dns |  |  |  |  | 
Cc1cc(O)cc(C)c1C[C@H](N)C(=O)N1CCC(CCCc2ccccc2)CC1 [Compound 4] | dns | dns | dns | weak partial agonist |  |  | 
Cc1cc(O)cc(C)c1C[C@H](N)C(=O)N1CCN(CCCCCc2ccccc2)CC1 [Compound 12] | dns |  |  |  |  |  | 
Cc1cc(O)cc(C)c1C[C@H](N)C(=O)N1CCN(C/C=C/Cc2ccccc2)CC1 [Compound 10] | dns |  |  |  |  |  | 
Cc1cc(O)cc(C)c1C[C@H](N)C(=O)N1CCN(CCCc2ccccc2)CC1 [Compound 5] | dns | dns | dns |  |  |  | 
Cc1cc(O)cc(C)c1C[C@H](N)C(=O)N1CCN(CCCc2cccc3ccccc23)CC1 [Compound 6] |  |  | dns | partial agonist profile |  |  | 
Cc1cc(O)cc(C)c1C[C@H](N)C(=O)N1CCN(CCC(c2ccccc2)c2ccccc2)CC1 [Compound 8] | dns | dns | dns |  | dns |  | 
Cc1cc(O)cc(C)c1C[C@H](N)C(=O)N1CCC(Cc2ccccc2)CC1 [Compound 3] | dns | dns | dns | lacked any efficacy | dns |  | 
Cc1cc(O)cc(C)c1C[C@H](N)C(=O)N1CCN(C/C=C/c2cccc3ccccc23)CC1 [Compound 7] |  |  | dns | no efficacy |  | no efficacy | no efficacy
Cc1cc(O)cc(C)c1C[C@H](N)C(=O)N1CCC(Cc2ccccc2)c2ccccc21 (some centres unmarked) [Compound 2] | dns | dns | dns | no notable efficacy | dns |  | 

From publication PMC3919453 (Bioorganic & medicinal chemistry letters, 2013)
